Measured values: patent US20110281852A1 (priority 2010, published 2011)

Assays:
[1] = in vitro; conditions: mouse, 3T3-L1 cells during proliferation
Method: Culture medium was removed at 24, 48 and 72 hrs and MTT (0.5 mg/ml in pure DMEM, 50 μl/well) was added.

[2] = system: SREBP-1; experiment: Real-time RT-PCR, SREBP-1 mRNA in 3T3-L1; format: cell-based, mouse; conditions: 8 days
Text: Realtime RT-PCR: Real-time reverse transcriptase polymerase chain reaction (RT-PCR) analysis was used to measure mRNA expression of genes SREBP-1, PPARγ, C/EBPα, low density lipoprotein receptor (LDLR), Adiponectin, and fatty acid synthase (FAS) under the control of β-actin. Briefly, total RNA was isolated from 3T3-L1 cells following treatment for 8 days with Trizol reagent (Invitrogen, Carlsbad, Calif., USA) according to the manufacturer's instruction. RNA was quantified using absorption of light at 260 nm, and sample purity was checked by OD 260 nm/280 nm. 0.8 μg of total RNA from each sample was used for reverse transcription reaction using the TaqMan Reverse Transcription Reagents (Applied Biosystems, Foster City, Calif., USA) according to the manufacturers' instructions. PCR was done using the SYBR green Master Mix (Applied Biosystems, Foster City, Calif., USA) according to the manufacturers' instructions. The temperature cycling conditions of amplification were as follows: an initial step of denaturation at 95° C. for 10 min, 40 cycles of denaturation at 95° C. for 30 s, annealing at 55° C. for 30 s, and elongation at 72° C. for 30 s. Realtime RT-PCR was performed using Mx3000P Realtime Thermocyclers (Statagene, La Jolla, Calif., USA). The relative mRNA levels of these genes were calculated by 2-delta delta CT method and normalized with control groups.

[3] = system: SREBP-1; experiment: Immunoblotting, SREBP-1 protein in 3T3-L1; format: cell-based, mouse; conditions: 8 days
Method: Immunoblotting: Protein expression of SREBP-1, PPARγ, and C/EBPα relative to […] was assessed by Western Blot. Total proteins were isolated from 3T3-L1 cells treated with compounds or vehicles for 8 days. The cells were washed twice with PBS, lysed in a HEPES-Tx-PI buffer ([…], 5 mM EDTA, 350 mM Sucrose, 1 μg/ml leupeptin, 1 μg/ml pepstatin, 1% Triton-X, 1 mM PMSF), processed with 25G needles and centrifuged at 12,000 rpm for 5 min. Protein concentration was determined using the Micro BCA Protein Assay Kit (Fisher Scientific, Pittsburgh, Pa., USA) following the manufacturers instructions. 25 μg proteins were loaded and separated by electrophoresis using the BioRad Electrophoretic System (65 V for 7 hour). The proteins were then transferred to nitrocellulose membranes at 40 V overnight. The membrane was blocked for 1 hour at room temperature in 5% nonfat milk in Tris-buffered saline (TBS), then washed with Tween-20-TBS (TTBS, 0.1% Tween-20) three times (15 min, 5 min, 5 min), followed by incubation with primary antibodies SREBP-1 (dilution 1:200), PPARγ (dilution 1:200), C/EBPα (dilution 1:200) (all purchased from Santa Cruz Biotechnology, Santa Cruz, Calif., USA) and […] (dilution 1:1000, Sigma-Aldrich, St. Louis, Mo., USA) at room temperature for 2 hours. […]

[4] = system: PPARγ; experiment: Immunoblotting, PPARγ protein in 3T3-L1; format: cell-based, mouse; conditions: 8 days
Method: Immunoblotting: Protein expression of SREBP-1, PPARγ, and C/EBPα relative to 3-actin was assessed by Western Blot. Total proteins were isolated from 3T3-L1 cells treated with compounds or vehicles for 8 days. The cells were washed twice with PBS, lysed in a HEPES-Tx-PI buffer (910 mM HEPES, 5 mM EDTA, 350 mM Sucrose, 1 μg/ml leupeptin, 1 μg/ml pepstatin, 1% Triton-X, 1 mM PMSF), processed with 25G needles and centrifuged at 12,000 rpm for 5 min. Protein concentration was determined using the Micro BCA Protein Assay Kit (Fisher Scientific, Pittsburgh, Pa., USA) following the manufacturers instructions. 25 μg proteins were loaded and separated by electrophoresis using the BioRad Electrophoretic System (65 V for 7 hour). The proteins were then transferred to nitrocellulose membranes at 40 V overnight. The membrane was blocked for 1 hour at room temperature in 5% nonfat milk in Tris-buffered saline (TBS), then washed with Tween-20-TBS (TTBS, 0.1% Tween-20) three times (15 min, 5 min, 5 min), followed by incubation with primary antibodies SREBP-1 (dilution 1:200), PPARγ (dilution 1:200), C/EBPα (dilution 1:200) (all purchased from Santa Cruz Biotechnology, Santa Cruz, Calif., USA) and 3-actin (dilution 1:1000, Sigma-Aldrich, St. Louis, Mo., USA) at room temperature for 2 hours. […]

[5] = Serum glucose assay in mice; format: in vivo, mouse
Method: Six mice per subgroup were obtained finally.
Serum glucose, triglyceride, cholesterol assay: Blood samples from each mouse were collected and serum was separated by centrifugation for the measurement of levels of glucose, triglyceride and total cholesterol. Serum glucose concentrations were analyzed using Glucose (HK) Assay Kit (Sigma-aldrich, Saint Louis, Mo., USA). Serum triglyceride concentrations were analyzed using Serum Triglyceride Determination Kit (Sigma-aldrich, Saint Louis, Mo., USA). Serum cholesterol concentrations were analyzed using Amplex® Red Cholesterol Assay Kit (Invitrogen, Carlsbad, Calif., USA). All experimental assays were done according to the manufacturer's instructions.

[6] = system: GATA-3; experiment: Immunoblot, GATA-3 protein in epididymal fat of FD mice; format: in vivo, mouse
Method: RNA and protein purification and quantification from epididymal fat tissues: RNA and protein was isolated from 60 mg of epididymal fat tissues with Trizol (Invitrogen, Carlsbad, Calif., USA) following the protocol recommended by the manufacturers. RNA was dissolved in pure water and quantified at 260/280 nm, and sample integrity was checked by 1.5% agarose gel electrophoresis. Protein concentration was determined using the Micro BCA Protein Assay Kit (Fisher Scientific, Pittsburgh, Pa., USA) according to the manufacturer's instructions.
Immunoblot Analysis: Protein expression of GATA-2, GATA-3, PPARγ and C/EBPα in the control of β-actin was assessed by Western Blot. Protein samples from the same group were homogenized as previously reported (Hu and Davies, Phytomedicine (2009) 16:864-873). Protein (25 μg) was separated by polyacrylamide gel electrophoresis using the BioRad Electrophoretic System (60 V for 1 h followed by 90 V for 5 h). The proteins were then transferred to nitrocellulose membranes at 35 V overnight. The membrane was blocked for 1 h at room temperature in 5% nonfat milk in Tris-buffered saline (TBS), then washed with Tween-20-TBS (TTBS, 0.1% Tween-20) three times (15 min, 5 min, 5 min), followed by incubation with primary antibodies mouse GATA-2, GATA-3 (dilution 1:200), PPARγ, C/EBPα and β-actin (dilution 1:500) at room temperature for 2 h (all antibodies were purchased from Santa Cruz Biotechnology, Santa Cruz, Calif., USA). The membrane was rinsed three times (15 min, 5 min, 5 min), then incubated at room temperature for 1 h with horseradish peroxidase-conjugated second antibody (1:10,000). The membrane was then incubated in ECL reagent (GE Healthcare, Piscataway, N.J., USA) for 1 min. Protein was visualized using the UVP image analysis system (UVP, Upland, Calif., USA).

[7] = 8 μM berberine + 15 μM clozapine
[8] = 8 μM berberine + 50 μM risperidone

COc1ccc2cc3[n+](cc2c1OC)CCc1cc2c(cc1-3)OCO2.[Cl-] [berberine, Berberine (Chloride Form)]
cytotoxicity at 1 day, 8 μM [1]: 13.2% | cytotoxicity at 2 days, 8 μM [1]: 13.8% | cytotoxicity at 3 days, 8 μM [1]: 18.6% | decrease of SREBP-1 mRNA expression vs clozapine treated group [2, 7]: 68.9% | decrease of SREBP-1 mRNA expression vs risperidone treated group [2, 8]: 80.9% | decrease of SREBP-1 protein expression vs clozapine treated group [3, 7]: 64.6% | decrease of SREBP-1 protein expression vs risperidone treated group [3, 8]: 60.4% | decrease of PPARγ protein expression vs clozapine treated group [4, 7]: 76% | decrease of PPARγ protein expression vs risperidone treated group [4, 8]: 85.7% | reduction of serum glucose level vs control treated subgroup ([5]; FD mice, 0.75 mg/kg/day): 19.5% | fasting serum glucose level ([5]; FD mice, 0.75 mg/kg/day, 36 days (control 195.4±27.3)): 157.3 ± 22.5 mg/dL | reduction of serum glucose level vs control treated subgroup ([5]; FD mice, 1.5 mg/kg/day): 22.3% | fasting serum glucose level ([5]; FD mice, 1.5 mg/kg/day, 36 days): 151.8 ± 21.1 mg/dL | reduction of serum glucose level vs control treated subgroup ([5]; FD mice, 3 mg/kg/day): 26.5% | fasting serum glucose level ([5]; FD mice, 3 mg/kg/day, 36 days): 143.5 ± 12.7 mg/dL | fasting serum glucose level ([5]; ND mice, 3 mg/kg/day (control 120.6±27.5)): 130.9 ± 16.2 mg/dL | GATA-3 protein expression increased to ([6]; 0.75 mg/kg/day): 2.2 fold | GATA-3 protein expression increased to ([6]; 1.5 mg/kg/day): 2.5 fold | GATA-3 protein expression increased to ([6]; 3 mg/kg/day): 6.9 fold
